Measured values reported in ChEMBL document CHEMBL4842385, “Indirubin Derivatives as Dual Inhibitors Targeting Cyclin-Dependent Kinase and Histone Deacetylase for Treating Cancer” (J Med Chem, 2021).
The source made the active and inactive calls. The rule behind the calls is not given here.

What was measured:
[1] = target: T1, Protein deacetylase HDAC6 (Homo sapiens) (UniProt Q9UBN7); test: Inhibition of HDAC6 in human A549 cells assessed as accumulation of acetylation of H4 at 1 to 10 uM measured after 48 hrs by Western blot analysis; format: cell-based; settings: dose 1-10 µM
T1 sequence (whole entry): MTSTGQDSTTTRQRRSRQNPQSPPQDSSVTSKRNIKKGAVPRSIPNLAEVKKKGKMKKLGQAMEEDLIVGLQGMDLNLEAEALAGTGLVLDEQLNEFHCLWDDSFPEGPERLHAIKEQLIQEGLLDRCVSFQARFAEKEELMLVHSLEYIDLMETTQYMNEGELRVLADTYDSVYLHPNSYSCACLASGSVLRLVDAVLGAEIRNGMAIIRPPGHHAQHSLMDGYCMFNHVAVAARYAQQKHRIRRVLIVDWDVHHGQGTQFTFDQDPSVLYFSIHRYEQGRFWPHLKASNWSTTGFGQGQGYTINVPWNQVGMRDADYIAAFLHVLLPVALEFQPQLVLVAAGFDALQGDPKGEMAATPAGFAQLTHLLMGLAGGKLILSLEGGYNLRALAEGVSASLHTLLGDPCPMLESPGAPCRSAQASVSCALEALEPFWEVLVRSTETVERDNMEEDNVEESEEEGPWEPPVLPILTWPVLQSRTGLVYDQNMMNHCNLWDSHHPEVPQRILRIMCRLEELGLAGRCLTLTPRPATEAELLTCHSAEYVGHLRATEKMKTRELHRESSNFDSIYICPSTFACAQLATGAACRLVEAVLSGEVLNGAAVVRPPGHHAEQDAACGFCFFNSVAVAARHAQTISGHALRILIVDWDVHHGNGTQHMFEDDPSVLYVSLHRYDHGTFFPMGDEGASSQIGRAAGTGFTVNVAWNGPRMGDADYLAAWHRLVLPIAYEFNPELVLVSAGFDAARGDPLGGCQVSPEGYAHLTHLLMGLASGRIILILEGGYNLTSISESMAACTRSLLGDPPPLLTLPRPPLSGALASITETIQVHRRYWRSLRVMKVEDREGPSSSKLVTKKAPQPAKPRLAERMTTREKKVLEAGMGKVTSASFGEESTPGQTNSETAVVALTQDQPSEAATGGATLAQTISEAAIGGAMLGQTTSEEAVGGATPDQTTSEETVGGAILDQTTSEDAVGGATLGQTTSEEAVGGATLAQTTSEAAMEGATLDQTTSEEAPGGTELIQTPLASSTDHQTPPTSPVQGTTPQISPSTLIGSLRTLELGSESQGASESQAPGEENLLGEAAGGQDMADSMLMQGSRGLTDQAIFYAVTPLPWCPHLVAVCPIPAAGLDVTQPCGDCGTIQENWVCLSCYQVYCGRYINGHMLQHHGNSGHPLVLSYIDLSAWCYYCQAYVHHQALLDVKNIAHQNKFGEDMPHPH

MCF7 [2] = test: Cycle arrest in human MCF7 cells assessed as increase in cell population at S phase measured after 24 hrs by propidium iodide/RNase staining based flow cytometry; format: functional; settings: dose 2.5-10 µM
A549 [3] = test: Induction of apoptosis in human A549 cells assessed as increase in sum of early and late apoptotic cells at 2.5 to 10 uM measured after 48 hrs by Annexin-V/FITC-propidium iodide staining based flow cytometry analysis; format: functional, cell-based; settings: dose 2.5-10 µM
MCF7 [4] = test: Antiproliferative activity against human MCF7 cells assessed as cell growth inhibition measured after 48 hrs by CCK8 assay; format: functional, cell-based; settings: MCF7, 48 h
A549 [5] = test: Induction of apoptosis in human A549 cells assessed as increase in PARP cleavage measured after 48 hrs by Western blot analysis; format: functional, cell-based; settings: dose 1-10 µM
A549 [6] = test: Antitumor activity against human A549 cells xenografted in BALB/c nude mouse assessed as tumor growth inhibition at 0.75 to 1.5 mg, IT (intratumoral) administered for 21 consecutive days relative to control; format: functional; settings: dose 0.75-1.5 mg, time 21 day
[7] = Toxicity in BALB/c nude mouse xenografted with human A549 cells assessed as body weight loss at 0.75 to 1.5 mg, IT(intratumoral) administered for 21 consecutive days; settings: in vivo, other, 504 h, dose 0.75-1.5 mg, time 21 day
MCF7 [8] = test: Induction of apoptosis in human MCF7 cells measured after 48 hrs by Annexin-V/FITC-propidium iodide staining based flow cytometry analysis; format: functional, cell-based; settings: dose 2.5-10 µM
A549 [9] = test: Cycle arrest in human A549 cells assessed as increase in cell population at S phase measured after 24 hrs by propidium iodide/RNase staining based flow cytometry; format: functional; settings: dose 2.5-10 µM
A549 [10] = test: Potency index, ratio of SAHA IC50 to test compound IC50 for antiproliferative activity against human A549 cells assessed as cell growth inhibition measured after 48 hrs by CCK8 assay; format: functional
[11] = target: T1, Protein deacetylase HDAC6 (Homo sapiens); test: Inhibition of HDAC6 in human A549 cells assessed as accumulation of acetylation of H3 at 1 to 10 uM measured after 48 hrs by Western blot analysis; format: cell-based; settings: dose 1-10 µM
[12] = target: Cyclin-dependent kinase 2/4/6 (Homo sapiens) (UniProt P11802+P24941+Q00534); test: Inhibition of CDK2/4/6 in human A549 cells assessed as decrease in Rb phosphorylation at 10 uM incubated for 24 hrs followed by compound washout by DAPI staining based immunofluorescence assay; format: cell-based
[13] = target: T1, Protein deacetylase HDAC6 (Homo sapiens); test: Inhibition of HDAC6 in human A549 cells assessed as increase in alpha tubulin acetylation measured after 48 hrs by Western blot analysis; format: cell-based; settings: dose 1-10 µM
[14] = target: T1, Protein deacetylase HDAC6 (Homo sapiens); test: Inhibition of HDAC6 in human MCF7 cells assessed as accumulation of acetylation of H4 at 1 to 10 uM measured after 48 hrs by Western blot analysis; format: cell-based; settings: dose 1-10 µM
K562 = test: Induction of apoptosis in human K562 cells measured after 48 hrs by Annexin-V/FITC-propidium iodide staining based flow cytometry analysis; format: functional, cell-based; settings: dose 2.5-10 µM

For `O=C(CCCO/N=C1/C(=C2/C(=O)Nc3ccccc32)Nc2ccccc21)NO`, the inhibition [1] was “inactive”, the Activity (MCF7 [2]) was “Dose-Dependent Effect” and the Activity (A549 [3]) was “Active”. For the same compound, the IC50 (MCF7 [4]) was 2900 nM, the Activity (A549 [5]) was “Dose-Dependent Effect” and the TGI (A549 [6]) was 67.1%. The Activity [7] was “Non-Toxic”, the Activity (MCF7 [8]) was “Dose-Dependent Effect” and the Activity (A549 [9]) was “Dose-Dependent Effect”. The “Ratio IC50” value (A549 [10]) was 3, the inhibition [11] was “inactive” and the inhibition [12] was “Active”. The inhibition [13] was “Dose-Dependent Effect”, the inhibition [14] was “inactive” and the Activity (K562) was “Dose-Dependent Effect”.
